Data published in ChEMBL document CHEMBL5038636, “Dihydrolucilactaene, a Potent Antimalarial Compound from Fusarium sp. RK97-94” (J Nat Prod, 2022).

Tests used:
T98G = experiment: Cytotoxicity against human T98G cells assessed as growth inhibition; assay type: functional, cell-based
HeLa = experiment: Cytotoxicity against human HeLa cells assessed as growth inhibition; assay type: functional, cell-based
HL-60 = experiment: Cytotoxicity against human HL-60 cells assessed as growth inhibition; assay type: functional, cell-based
Escherichia coli = experiment: Antibacterial activity against Escherichia coli HO141 assessed as growth inhibition; assay type: functional, organism-based
Plasmodium falciparum [1] = experiment: Antimalarial activity against wild-type Plasmodium falcipuram 3D7 assessed as growth inhibition; assay type: functional, organism-based
Candida albicans = experiment: Antifungal activity against Candida albicans JCM1542 assessed as growth inhibition; assay type: functional, organism-based
Staphylococcus aureus = experiment: Antibacterial activity against Staphylococcus aureus 209 assessed as growth inhibition; assay type: functional, organism-based
Aspergillus fumigatus = experiment: Antifungal activity against Aspergillus fumigatus Af293 assessed as growth inhibition; assay type: functional, organism-based
Pyricularia oryzae = experiment: Antifungal activity against Pyricularia oryzae kita-1 assessed as growth inhibition; assay type: functional, organism-based
Plasmodium falciparum [2] = experiment: Antimalarial activity against chloroquine-resistant Plasmodium falcipuram K1 assessed as growth inhibition; assay type: functional, organism-based
MKN-74 = experiment: Cytotoxicity against human MKN74 cells assessed as growth inhibition; assay type: functional, cell-based

| SMILES | IC50 (T98G) [µM] | IC50 (HeLa) [µM] | IC50 (HL-60) [µM] | IC50 (Escherichia coli) [µM] | IC50 (Plasmodium falciparum [1]) [µM] | IC50 (Candida albicans) [µM] | IC50 (Staphylococcus aureus) [µM] | IC50 (Aspergillus fumigatus) [µM] | IC50 (Pyricularia oryzae) [µM] | IC50 (Plasmodium falciparum [2]) [µM] | IC50 (MKN-74) [µM] |
| --- | --- | --- | --- | --- | --- | --- | --- | --- | --- | --- | --- |
| CC(=O)O[C@H]1C(=O)[C@@]2(C)[C@H]([C@H](OC(=O)c3ccccc3)[C@]3(O)C[C@H](OC(=O)[C@H](O)[C@@H](NC(=O)c4ccccc4)c4ccccc4)C(C)=C1C3(C)C)[C@]1(OC(C)=O)CO[C@@H]1C[C@@H]2O [PACLITAXEL] | 8.7 | 0.0043 | 0.0022 |  |  |  |  |  |  |  |  |
| C\C=C(/C=C(C)/C=C/C=C/C=C(\C)C(=O)[C@H]1C(=O)N[C@]2(O)CCO[C@H]12)C(=O)OC |  | 24.9 | 17.4 | > 70 | 0.15 | > 70 | > 70 | > 70 | > 70 |  |  |
| C\C=C(/C=C(C)/C=C/C=C/C=C(\C)C(=O)[C@]12O[C@H]1[C@@](O)(CCO)NC2=O)C(=O)OC |  | 14.1 | 15.8 | > 70 | 1.8 | > 70 | > 70 | > 70 | > 70 |  |  |
| C\C=C(/C=C(C)/C=C/C=C/C=C(\C)C(=O)C1C[C@@](O)(CCO)NC1=O)C(=O)OC (some centres not stated) | > 70 | 21.5 | 37.7 | > 70 | 0.0015 | > 70 | > 70 | > 70 | 6.7 | 0.0015 | > 70 |
| C\C=C(/C=C(C)/C=C/C=C/C=C(\C)C(=O)[C@@]1(O)C(=O)N[C@]2(O)CCO[C@H]12)C(=O)OC |  | > 70 | > 70 |  | 0.67 |  |  |  |  |  |  |
| C[C@@H]1[C@H](O)[C@@H](C)/C=C/C=C/C=C/C=C/C=C/C=C/C=C/[C@H](O[C@@H]2O[C@H](C)[C@@H](O)[C@H](N)[C@@H]2O)C[C@@H]2O[C@](O)(C[C@@H](O)C[C@@H](O)[C@H](O)CC[C@@H](O)C[C@@H](O)CC(=O)O[C@H]1C)C[C@H](O)[C@H]2C(=O)O [AMPHOTERICIN B] |  |  |  |  |  | 0.03 |  | 0.21 | 0.16 |  |  |
| C[C@@H]1CC[C@H]2[C@@H](C)C(=O)O[C@@H]3O[C@@]4(C)CC[C@@H]1[C@]32OO4 [ARTEMISININ] |  |  |  |  | 0.019 |  |  |  |  |  |  |
| C\C=C(/C=C(C)/C=C/C=C/C=C(\C)C(O)[C@]12O[C@H]1[C@@](O)(CCO)NC2=O)C(=O)OC (some centres not stated) | > 70 | > 70 | > 70 | > 70 | 62.1 | > 70 | > 70 | > 70 | > 70 |  | > 70 |
| O=C(N[C@H](CO)[C@H](O)c1ccc([N+](=O)[O-])cc1)C(Cl)Cl [CHLORAMPHENICOL] |  |  |  | 4.6 |  |  | 5.4 |  |  |  |  |
| C\C=C(/C=C(C)/C=C/C=C/C=C(\C)C(=O)[C@H]1C(=O)N[C@]2(O)CCO[C@H]12)C(=O)O |  | > 70 | > 70 | > 70 | 43.9 | > 70 | > 70 | > 70 | > 70 |  |  |
